Measurements reported in US12286437B2, “Cardiac sarcomere inhibitors” (Cytokinetics, Inc., priority 2021, dated 2025).
Read-outs that look alike come from different tables or passages of the source.

How the values were obtained:
[1] = system: bovine cardiac myofibrils; assay: Myofibril assay (ATPase activity of skinned bovine cardiac myofibrils, PK/LDH-coupled); format: biochemical; settings: inhibition of steady-state ATPase of bovine cardiac myofibrils; CaCl2 for 50% or 75% activation
How it was run: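 Steady-state ATPase of detergent-skinned bovine left-ventricular myofibrils (1 mg/mL), PK/LDH-coupled NADH read at 340 nm, in PIPES/MgCl2 buffer pH 6.8 with 50 μM ATP, 0.6 mM EGTA and CaCl2 set for 50% or 75% activation. Inhibition of activity measured.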

[2] = Monkey cassette dosing pharmacokinetics; format: in vivo; settings: IV; for clearance / Vd: male, plasma; for Vd: read-out: Vss
CYP1A2 = target: T1, CYP1A2 (Homo sapiens, UniProt P05177); assay: Time-dependent inhibition of CYP1A2 in human liver microsomes; format: in vitro ADME; settings: for (% Activity NADPH T0)/(% Activity NADPH T30): fold change; for activity at 30 min, 25 µM / activity at 0 min, 25 µM / activity at 30 min, 50 µM / activity at 0 min, 50 µM: pooled human liver microsomes, human liver microsomes; for activity at 30 min, 25 µM / activity at 30 min, 50 µM: after 30 minutes incubation, read-out: % Activity NADPH T30; for activity at 0 min, 25 µM / activity at 0 min, 50 µM: time zero, read-out: % Activity NADPH T0
T1 construct: Pooled human microsomes and selective CYP probe substrates were used; from tissue; host or cells: pooled human liver microsomes
T1 sequence (P05177 1-516): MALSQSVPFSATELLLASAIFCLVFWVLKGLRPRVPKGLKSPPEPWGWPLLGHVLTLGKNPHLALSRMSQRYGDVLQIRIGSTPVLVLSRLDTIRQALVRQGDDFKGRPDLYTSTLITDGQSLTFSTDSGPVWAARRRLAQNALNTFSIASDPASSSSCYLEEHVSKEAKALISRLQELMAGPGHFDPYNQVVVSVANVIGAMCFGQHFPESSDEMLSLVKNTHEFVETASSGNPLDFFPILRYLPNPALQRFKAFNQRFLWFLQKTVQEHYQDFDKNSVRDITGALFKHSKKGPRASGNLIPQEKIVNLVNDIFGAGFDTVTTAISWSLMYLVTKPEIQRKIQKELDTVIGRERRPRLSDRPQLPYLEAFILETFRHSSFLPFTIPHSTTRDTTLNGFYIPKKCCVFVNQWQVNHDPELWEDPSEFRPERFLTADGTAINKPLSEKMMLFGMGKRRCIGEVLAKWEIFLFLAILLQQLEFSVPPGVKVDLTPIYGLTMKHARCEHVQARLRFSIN
Method: (§1) An assessment of the time-dependent Inhibitory Potential of the test compounds against Principal Human Cytochrome P450 Isozymes using Human Liver Microsomes was also carried out using standard methods (Grimm et al, Drug Metab. Dispos., July; 37(7):1355-70. doi: 10.1124/dmd.109.026716, 2009). Pooled human microsomes and selective CYP probe substrates were used for in vitro assessment of test compounds at 25 and 50 μM as time-dependent inhibitors of […] human hepatic cytochrome P450 isozymes (CYP1A2, 2B6, 2C9, 2C19, 2D6, and 3A4). LC-MS/MS was used to quantify metabolite formation. The inhibition of each P450 enzyme in human liver microsomes was measured as the percentage decrease in the activity of marker metabolite formation as measured by LC-MS/MS compared to non-inhibited controls (=100% activity) at time zero and after 30 minutes incubation. The occurrence of any time dependent inhibition was then expressed as the fold change in enzyme activity at time zero relative to the activity after 30 minutes incubation.

CYP2B6 = target: T2, CYP2B6 (Homo sapiens, UniProt P20813); assay: Time-dependent inhibition of CYP2B6 in human liver microsomes; format: in vitro ADME; settings: for (% Activity NADPH T0)/(% Activity NADPH T30): fold change; for activity at 30 min, 25 µM / activity at 0 min, 25 µM / activity at 30 min, 50 µM / activity at 0 min, 50 µM: pooled human liver microsomes, human liver microsomes; for activity at 30 min, 25 µM / activity at 30 min, 50 µM: after 30 minutes incubation, read-out: % Activity NADPH T30; for activity at 0 min, 25 µM / activity at 0 min, 50 µM: time zero, read-out: % Activity NADPH T0
T2 construct: Pooled human microsomes and selective CYP probe substrates were used; from tissue; host or cells: pooled human liver microsomes
T2 sequence (P20813 1-491): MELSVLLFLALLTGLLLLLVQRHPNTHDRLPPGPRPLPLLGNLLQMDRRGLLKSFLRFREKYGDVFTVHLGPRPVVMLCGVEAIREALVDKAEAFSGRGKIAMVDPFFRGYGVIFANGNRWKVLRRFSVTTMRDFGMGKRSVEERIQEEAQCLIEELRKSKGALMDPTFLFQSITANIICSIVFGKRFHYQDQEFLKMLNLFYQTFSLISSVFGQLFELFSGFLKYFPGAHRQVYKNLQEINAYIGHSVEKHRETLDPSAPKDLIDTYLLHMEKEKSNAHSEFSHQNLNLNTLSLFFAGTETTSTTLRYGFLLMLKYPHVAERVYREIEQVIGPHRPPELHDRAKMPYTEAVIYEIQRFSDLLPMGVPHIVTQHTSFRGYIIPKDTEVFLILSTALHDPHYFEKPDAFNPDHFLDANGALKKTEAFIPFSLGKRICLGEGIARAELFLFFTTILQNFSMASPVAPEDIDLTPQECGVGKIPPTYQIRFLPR
Method: as §1

CYP2D6 = target: T3, CYP2D6 (Homo sapiens, UniProt P10635); assay: Time-dependent inhibition of CYP2D6 in human liver microsomes; format: in vitro ADME; settings: for (% Activity NADPH T0)/(% Activity NADPH T30): fold change; for activity at 30 min, 25 µM / activity at 0 min, 25 µM / activity at 30 min, 50 µM / activity at 0 min, 50 µM: pooled human liver microsomes, human liver microsomes; for activity at 30 min, 25 µM / activity at 30 min, 50 µM: after 30 minutes incubation, read-out: % Activity NADPH T30; for activity at 0 min, 25 µM / activity at 0 min, 50 µM: time zero, read-out: % Activity NADPH T0
T3 construct: Pooled human microsomes and selective CYP probe substrates were used; from tissue; host or cells: pooled human liver microsomes
Method: as §1

CYP3A4 = target: T4, CYP3A4 (Homo sapiens, UniProt P08684); assay: Time-dependent inhibition of CYP3A4 in human liver microsomes (testosterone and midazolam probes); format: in vitro ADME; settings: for (% Activity NADPH T0)/(% Activity NADPH T30): fold change; for activity at 30 min, 25 µM / activity at 30 min, 50 µM: human, after 30 minutes incubation, read-out: % Activity NADPH T30; for activity at 30 min, 25 µM / activity at 30 min, 50 µM / activity at 0 min, 25 µM / activity at 0 min, 50 µM: pooled human liver microsomes; for activity at 0 min, 25 µM / activity at 0 min, 50 µM: human liver microsomes, time zero, read-out: % Activity NADPH T0
T4 construct: Pooled human microsomes and selective CYP probe substrates were used; from tissue; host or cells: pooled human liver microsomes
Method: as §1

[3] = CYP3A4-M (midazolam probe substrate), 25 μM
[4] = CYP3A4-M (midazolam probe substrate), 50 μM
[5] = CYP3A4-T (testosterone probe substrate), 25 μM
[6] = CYP3A4-T (testosterone probe substrate), 50 μM

T4 sequence (P08684 whole entry): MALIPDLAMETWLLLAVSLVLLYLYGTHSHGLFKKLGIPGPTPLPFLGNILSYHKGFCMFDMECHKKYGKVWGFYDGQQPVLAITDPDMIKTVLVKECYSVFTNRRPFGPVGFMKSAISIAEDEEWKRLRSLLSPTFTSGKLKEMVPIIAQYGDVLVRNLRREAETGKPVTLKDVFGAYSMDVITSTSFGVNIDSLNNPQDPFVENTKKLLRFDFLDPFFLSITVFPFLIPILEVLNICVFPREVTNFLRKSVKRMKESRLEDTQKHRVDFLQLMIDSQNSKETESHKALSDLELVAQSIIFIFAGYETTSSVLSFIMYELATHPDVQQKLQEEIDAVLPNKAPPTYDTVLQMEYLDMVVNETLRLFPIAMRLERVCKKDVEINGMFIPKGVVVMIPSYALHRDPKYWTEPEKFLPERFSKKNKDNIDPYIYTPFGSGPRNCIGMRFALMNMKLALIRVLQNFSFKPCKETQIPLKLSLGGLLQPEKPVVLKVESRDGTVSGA
T3 sequence (P10635 whole entry): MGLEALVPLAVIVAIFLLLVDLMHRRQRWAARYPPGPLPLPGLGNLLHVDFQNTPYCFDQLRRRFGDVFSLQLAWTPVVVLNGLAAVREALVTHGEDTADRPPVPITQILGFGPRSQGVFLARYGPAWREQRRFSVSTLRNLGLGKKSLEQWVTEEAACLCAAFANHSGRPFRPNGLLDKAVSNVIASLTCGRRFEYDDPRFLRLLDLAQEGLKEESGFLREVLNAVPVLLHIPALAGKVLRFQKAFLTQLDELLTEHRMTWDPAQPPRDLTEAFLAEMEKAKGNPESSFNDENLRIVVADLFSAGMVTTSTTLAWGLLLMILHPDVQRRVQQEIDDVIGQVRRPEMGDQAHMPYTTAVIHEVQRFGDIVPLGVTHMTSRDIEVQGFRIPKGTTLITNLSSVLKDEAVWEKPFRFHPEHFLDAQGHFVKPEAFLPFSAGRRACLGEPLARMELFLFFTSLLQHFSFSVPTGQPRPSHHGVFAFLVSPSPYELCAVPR

| CDMF IC15 [1] [nM] | t l/2 [2] [h] | (% Activity NADPH T0)/(% Activity NADPH T30) (CYP1A2; CYP1A2, 25 μM) | (% Activity NADPH T0)/(% Activity NADPH T30) (CYP1A2; CYP1A2, 50 μM) | (% Activity NADPH T0)/(% Activity NADPH T30) (CYP2B6; CYP2B6, 25 μM) | (% Activity NADPH T0)/(% Activity NADPH T30) (CYP2B6; CYP2B6, 50 μM) | (% Activity NADPH T0)/(% Activity NADPH T30) (CYP2D6; CYP2D6, 25 μM) | (% Activity NADPH T0)/(% Activity NADPH T30) (CYP2D6; CYP2D6, 50 μM) | (% Activity NADPH T0)/(% Activity NADPH T30) (CYP3A4; [3]) | (% Activity NADPH T0)/(% Activity NADPH T30) (CYP3A4; [4]) | (% Activity NADPH T0)/(% Activity NADPH T30) (CYP3A4; [5]) | (% Activity NADPH T0)/(% Activity NADPH T30) (CYP3A4; [6]) | clearance [2] [mL/min/kg] | Vd [2] [L/kg] | activity at 30 min, 25 µM (CYP1A2; CYP1A2, 25 μM) [%] | activity at 0 min, 25 µM (CYP1A2; CYP1A2, 25 μM) [%] | activity at 30 min, 50 µM (CYP1A2; CYP1A2, 50 μM) [%] | activity at 0 min, 50 µM (CYP1A2; CYP1A2, 50 μM) [%] | activity at 30 min, 25 µM (CYP2B6; CYP2B6, 25 μM) [%] | activity at 0 min, 25 µM (CYP2B6; CYP2B6, 25 μM) [%] | SMILES | other results |
| --- | --- | --- | --- | --- | --- | --- | --- | --- | --- | --- | --- | --- | --- | --- | --- | --- | --- | --- | --- | --- | --- |
| 1500 | 8.69 | 1.1 | 1.0 | 1.1 | 1.0 | 1.3 | 1.1 | 0.8 | 0.7 | 0.9 | 0.8 | – | – | – | – | – | – | – | – | C[C@H]1CC[C@H](N2CC(=O)N(Cc3ccc(F)c(F)c3)C3(CN(C=O)C3)C2=O)CC1 [Compound 4, 5-(3,4-difluorobenzyl)-8-((1r,4r)-4-methylcyclohexyl)-6,9-dioxo-2,5,8-triazaspiro[3.5]nonane-2-carbaldehyde] | (% Activity NADPH T0)/(% Activity NADPH T30) (CYP2D6; CYP2D6, 50 μM, listed as compound 4): no change in activity |
| 1300 | 8.2 | 1.0 | 1.1 | 1.0 | 1.1 | 1.1 | 1.1 | 1.1 | 1.9 | 1.1 | 1.4 | 19 | 10.2 | 87 | 89 | 88 | 99 | 78 | 79 | C[C@H]1CC[C@H](N2CC(=O)N(Cc3ccc(F)c(F)c3)C3(CN(C(N)=O)C3)C2=O)CC1 [Compound 5, 5-(3,4-difluorobenzyl)-8-((1r,4r)-4-methylcyclohexyl)-6,9-dioxo-2,5,8-triazaspiro[3.5]nonane-2-carboxamide] | activity at 30 min, 50 µM (CYP2B6; CYP2B6, 50 μM): 76%; activity at 0 min, 50 µM (CYP2B6; CYP2B6, 50 μM): 83%; activity at 30 min, 25 µM (CYP2D6; CYP2D6, 25 μM): 89%; activity at 0 min, 25 µM (CYP2D6; CYP2D6, 25 μM): 98%; activity at 30 min, 50 µM (CYP2D6; CYP2D6, 50 μM): 84%; activity at 0 min, 50 µM (CYP2D6; CYP2D6, 50 μM): 94%; activity at 30 min, 25 µM (CYP3A4; [3]): 69%; activity at 30 min, 50 µM (CYP3A4; [4]): 35%; activity at 30 min, 25 µM (CYP3A4; [5]): 87%; activity at 30 min, 50 µM (CYP3A4; [6]): 68%; activity at 0 min, 25 µM (CYP3A4; [3]): 75%; activity at 0 min, 50 µM (CYP3A4; [4]): 67%; activity at 0 min, 25 µM (CYP3A4; [5]): 100%; activity at 0 min, 50 µM (CYP3A4; [6]): 98% |
| 1400 | 8.07 | 1.1 | 1.0 | 1.1 | 1.1 | 1.3 | 1.2 | 1.0 | 0.8 | 1.3 | 1.4 | 12.3 | 6.29 | 85 | 97 | 99 | 95 | 83 | 95 | Cc1cc(CN2C(=O)CN([C@H]3CC[C@H](C)CC3)C(=O)C23CN(C(N)=O)C3)ccc1F [Compound 6, 5-(4-fluoro-3-methylbenzyl)-8-((1r,4r)-4-methylcyclohexyl)-6,9-dioxo-2,5,8-triazaspiro[3.5]nonane-2-carboxamide] | activity at 30 min, 50 µM (CYP2B6; CYP2B6, 50 μM): 77%; activity at 0 min, 50 µM (CYP2B6; CYP2B6, 50 μM): 87%; (% Activity NADPH T0)/(% Activity NADPH T30) (CYP2D6; CYP2D6, 50 μM, listed as compound 6): no change in activity; activity at 30 min, 25 µM (CYP2D6; CYP2D6, 25 μM): 87%; activity at 0 min, 25 µM (CYP2D6; CYP2D6, 25 μM): 112%; activity at 30 min, 50 µM (CYP2D6; CYP2D6, 50 μM): 92%; activity at 0 min, 50 µM (CYP2D6; CYP2D6, 50 μM): 107%; activity at 30 min, 25 µM (CYP3A4; [3]): 89%; activity at 30 min, 50 µM (CYP3A4; [4]): 86%; activity at 30 min, 25 µM (CYP3A4; [5]): 76%; activity at 30 min, 50 µM (CYP3A4; [6]): 63%; activity at 0 min, 25 µM (CYP3A4; [3]): 89%; activity at 0 min, 50 µM (CYP3A4; [4]): 72%; activity at 0 min, 25 µM (CYP3A4; [5]): 95%; activity at 0 min, 50 µM (CYP3A4; [6]): 89% |
